Earlier results, collected in patent US8992954B2, “Compositions comprising a derivative of 5-aminolevulinic acid” (Photocure ASA, priority 2010, dated 2015).

Tested on: skin
Conditions: Eucerin cream base with 5%, 10% and 20% by weight of ALA; occlusion 4 hours; visible light

Skin reactions after the illumination: erythema and edema appeared
Compound: NCC(=O)CCC(=O)O [Composition 5-ALA, 5-amino-4-oxo-pentanoic acid]
Complaints during illumination: All volunteers complained about burning and itching | Pigmentary response: pigmentary response was observed
